The record followed here is US20260028354A1, “TETRAHYDRONAPHTHALENE DERIVATIVES AS ESTROGEN RECEPTOR DEGRADERS” (REGENT OF THE UNIVERSITY OF MICHIGAN, priority 2022, published 2026).

Read-outs that look alike come from different tables or passages of the source.

For one experiment, the target named is CRBN/DDB1 (Homo sapiens (Human), UniProt Q96SW2). Format: binding. Particulars: His tagged CRBN+DDB1, Cy5-labeled Thalidomide probe, one hour; read-out: CRBN HTRF IC50. On the procedure:
The binding potency was determined using HTRF assay technology (Perkin Elmer). Compounds were serially diluted in DMSO and […] volume was transferred to white 384-well plate.
A general note: In TR-FRET formats the signal depends on donor and acceptor labels being close together.

The target in the next experiment is ER in MCF-7 cells (Homo sapiens (Human), UniProt P03372). The experiment is described as follows: In-cell Western (ICW) ER degradation assay in MCF-7 cells. Format: cell-based. The conditions noted are these: for DC50: MCF-7, ER degradation, read-out: MCF7 DC50.
ER in MCF-7 cells, sequence (P03372 whole entry): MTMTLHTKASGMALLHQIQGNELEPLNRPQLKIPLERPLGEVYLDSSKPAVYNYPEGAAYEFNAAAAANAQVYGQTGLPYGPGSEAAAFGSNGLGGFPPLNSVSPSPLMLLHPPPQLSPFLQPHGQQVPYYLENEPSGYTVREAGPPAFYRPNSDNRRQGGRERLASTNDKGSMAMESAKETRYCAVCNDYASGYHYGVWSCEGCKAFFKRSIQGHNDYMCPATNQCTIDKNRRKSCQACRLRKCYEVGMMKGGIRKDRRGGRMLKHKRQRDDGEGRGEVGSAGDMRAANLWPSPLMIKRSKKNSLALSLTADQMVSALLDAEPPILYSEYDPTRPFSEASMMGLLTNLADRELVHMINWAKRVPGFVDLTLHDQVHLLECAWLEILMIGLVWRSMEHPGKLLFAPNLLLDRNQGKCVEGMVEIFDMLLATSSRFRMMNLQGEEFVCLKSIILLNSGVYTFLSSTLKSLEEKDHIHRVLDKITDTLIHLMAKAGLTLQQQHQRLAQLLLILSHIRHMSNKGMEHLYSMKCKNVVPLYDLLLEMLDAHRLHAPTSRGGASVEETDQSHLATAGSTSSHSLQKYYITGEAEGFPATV
[1] abbreviates: MCF7, read-out: MCF7 Dmax, MCF-7, maximal ER degradation, 16 hrs treatment.
The mark [2] stands for this setting: MCF7, MCF-7, maximal ER degradation, 16 hrs treatment, read-out: MCF7 Dmax.

CRBN/DDB1, sequence (Q96SW2 whole entry, species assumed): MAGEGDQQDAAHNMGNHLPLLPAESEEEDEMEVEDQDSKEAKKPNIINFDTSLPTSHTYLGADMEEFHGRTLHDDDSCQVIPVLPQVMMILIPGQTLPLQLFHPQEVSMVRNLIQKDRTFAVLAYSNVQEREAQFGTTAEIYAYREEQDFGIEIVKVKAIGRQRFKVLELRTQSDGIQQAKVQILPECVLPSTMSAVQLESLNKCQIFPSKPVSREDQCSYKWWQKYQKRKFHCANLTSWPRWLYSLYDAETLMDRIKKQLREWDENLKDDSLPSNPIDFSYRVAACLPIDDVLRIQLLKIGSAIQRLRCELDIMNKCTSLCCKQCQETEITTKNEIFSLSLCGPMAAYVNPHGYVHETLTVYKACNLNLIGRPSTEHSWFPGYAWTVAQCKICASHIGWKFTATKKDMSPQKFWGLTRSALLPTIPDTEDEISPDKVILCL
CRBN/DDB1, sequence (Q16531 whole entry partner, species assumed): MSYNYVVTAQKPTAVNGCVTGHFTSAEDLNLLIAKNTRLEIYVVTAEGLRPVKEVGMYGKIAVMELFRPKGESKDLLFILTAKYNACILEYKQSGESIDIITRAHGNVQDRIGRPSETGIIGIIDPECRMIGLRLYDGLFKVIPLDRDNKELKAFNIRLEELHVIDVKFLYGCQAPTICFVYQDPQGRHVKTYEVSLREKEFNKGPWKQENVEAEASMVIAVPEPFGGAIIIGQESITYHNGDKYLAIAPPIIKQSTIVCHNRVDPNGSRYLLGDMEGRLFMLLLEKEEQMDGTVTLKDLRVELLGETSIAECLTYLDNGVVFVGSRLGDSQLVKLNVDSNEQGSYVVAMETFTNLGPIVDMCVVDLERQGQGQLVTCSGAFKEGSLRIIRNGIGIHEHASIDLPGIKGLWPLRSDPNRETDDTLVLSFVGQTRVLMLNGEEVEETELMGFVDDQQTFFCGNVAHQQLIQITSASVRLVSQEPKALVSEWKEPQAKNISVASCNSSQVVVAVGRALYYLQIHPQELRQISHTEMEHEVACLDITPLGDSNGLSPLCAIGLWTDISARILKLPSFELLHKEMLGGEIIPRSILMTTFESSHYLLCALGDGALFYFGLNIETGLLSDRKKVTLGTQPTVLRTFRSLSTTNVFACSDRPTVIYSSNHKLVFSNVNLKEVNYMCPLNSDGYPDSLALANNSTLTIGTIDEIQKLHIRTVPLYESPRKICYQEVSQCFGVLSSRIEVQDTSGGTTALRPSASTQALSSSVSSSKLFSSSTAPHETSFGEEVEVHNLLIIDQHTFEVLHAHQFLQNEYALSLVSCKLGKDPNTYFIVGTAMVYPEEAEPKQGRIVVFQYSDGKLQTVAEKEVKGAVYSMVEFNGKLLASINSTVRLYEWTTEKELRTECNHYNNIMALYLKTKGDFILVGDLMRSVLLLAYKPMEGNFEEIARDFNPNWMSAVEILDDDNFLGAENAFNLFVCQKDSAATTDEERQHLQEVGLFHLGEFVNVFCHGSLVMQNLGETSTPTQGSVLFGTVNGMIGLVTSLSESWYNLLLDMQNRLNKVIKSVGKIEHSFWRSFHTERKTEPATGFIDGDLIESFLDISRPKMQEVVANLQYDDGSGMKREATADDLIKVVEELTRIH

The term IC50 denotes the concentration at which inhibition is half-maximal. As a reminder, the Dmax is the largest share of the target that was removed. The term DC50 denotes the midpoint of the concentration-degradation curve. For `O=C1CC[C@H](N2Cc3c(ccc4c3OCC43CCN(CC4CCC5(CC4)CN(c4ncc([C@H]6c7ccc(O)cc7CC[C@H]6c6ccccc6)cn4)C5)CC3)C2=O)C(=O)N1` [Compound A153, (S)-3-(1′-((2-(5-((1R,2R)-6-hydroxy-2-phenyl-1,2,3,4-tetrahydronaphthalen-1-yl)pyrimidin-2-yl)-2-azaspiro[3.5]nonan-7-yl)methyl)-6-oxo-6,8-dihydro-2H,7H-spiro[furo[2,3-e]isoindole-3,4′-piperidin]-7-yl)piperidine-2,6-dione], the IC50 at CRBN/DDB1 is below 50 nM. Moreover, the Dmax at ER in MCF-7 cells (setting [1]) was below 25%. Further, the DC50 at ER in MCF-7 cells (16 hrs treatment) was above 100 nM.
The like results for `O=C1CC[C@H](N2Cc3c(ccc4c3OCC43CCN(CC4CC5(CCN(c6ncc([C@H]7c8ccc(O)cc8CC[C@H]7c7ccccc7)cn6)CC5)C4)CC3)C2=O)C(=O)N1` [Compound A141, (S)-3-(1′-((7-(5-((1R,2R)-6-hydroxy-2-phenyl-1,2,3,4-tetrahydronaphthalen-1-yl)pyrimidin-2-yl)-7-azaspiro[3.5]nonan-2-yl)methyl)-6-oxo-6,8-dihydro-2H,7H-spiro[furo[2,3-e]isoindole-3,4′-piperidin]-7-yl)piperidine-2,6-dione] were, in that order, below 50 nM, 50 to 75% and 1 to 10 nM.
Take `O=C1CC[C@H](N2Cc3c(ccc4c3OCC43CCN(CC4CCN(c5ccc([C@@H]6c7ccc(O)cc7CC[C@@H]6c6ccccc6)cc5)CC4)CC3)C2=O)C(=O)N1` [Compound A70, (S)-3-(1′-((1-(4-((1R,2S)-6-hydroxy-2-phenyl-1,2,3,4-tetrahydronaphthalen-1-yl)-phenyl)piperidin-4-yl)methyl)-6-oxo-6,8-dihydro-2H,7H-spiro[furo[2,3-e]isoindole-3,4′-piperidin]-7-yl)piperidine-2,6-dione]: on CRBN/DDB1, the IC50 was below 50 nM. Further, at ER in MCF-7 cells (setting [1]), the Dmax is 50 to 75%. Also, the DC50 at ER in MCF-7 cells (16 hrs treatment) is below 1 nM.
As to `O=C1CC[C@H](N2Cc3c(ccc4c3OC[C@H]3CN(CC5CCC6(CC5)CN(c5ccc([C@H]7c8ccc(O)cc8CC[C@H]7c7ccccc7)cc5F)C6)CCN43)C2=O)C(=O)N1` (single isomer, unassigned) [Compound A159], the IC50 on CRBN/DDB1 was 50 to 500 nM. Moreover, at ER in MCF-7 cells (setting [2]), the Dmax was 25 to 50%. For the same molecule, the DC50 on ER in MCF-7 cells (16 hrs treatment) was 10 to 100 nM.
As for `O=C1CC[C@H](N2Cc3c(ccc4c3OC[C@H]3CN(CCCOC5CN(c6ccc([C@@H]7c8ccc(O)cc8CC[C@@H]7c7ccccc7)cc6)C5)CCN43)C2=O)C(=O)N1` [Compound A78, (S)-3-((R)-7-(3-((1-(4-((1R,2S)-6-hydroxy-2-phenyl-1,2,3,4-tetrahydronaphthalen-1-yl)-phenyl)azetidin-3-yl)oxy)prop-yl)-1-oxo-1,3,5,5a,6,7,8,9-octa-hydro-2H-pyrazino[1′,2′:4,5] [1,4]oxazino[2,3-e]isoindol-2-yl)piperidine-2,6-dione], at CRBN/DDB1, the IC50 is below 50 nM. Also, the Dmax on ER in MCF-7 cells (setting [2]) was in the range of 50 to 75%. For the same molecule, the DC50 on ER in MCF-7 cells (16 hrs treatment) is below 1 nM.
For `O=C1CC[C@H](N2Cc3c(ccc4c3OCC43CCN(CC4CCC5(CC4)CN(c4ccc([C@H]6c7ccc(O)cc7CC[C@H]6c6ccccc6)cc4F)C5)CC3)C2=O)C(=O)N1` [Compound A160, (S)-3-(1′-((2-(2-fluoro-4-((1S, 2R)-6-hydroxy-2-phenyl-1,2,3,4-tetrahydronaphthalen-1-yl)phenyl)-2-azaspiro[3.5]nonan-7-yl)methyl)-6-oxo-6,8-dihydro-2H,7H-spiro[furo[2,3-c]isoindolc-3,4′-pipcridin]-7-yl)pipcridinc-2,6-dione], the IC50 at CRBN/DDB1 was 50 to 500 nM. The Dmax at ER in MCF-7 cells (setting [1]) was in the range of 50 to 75%. In addition, the DC50 on ER in MCF-7 cells (16 hrs treatment) lay within 10 to 100 nM.
Take `O=C1CCC(NC(=O)c2ccc(C3CCN(CC4CCN(c5ccc([C@@H]6c7ccc(O)cc7CC[C@@H]6c6ccccc6)cc5)CC4)CC3)cn2)C(=O)N1` (stereo partly drawn) [Compound A3, N-(2,6-dioxopiperidin-3-yl)-5-(1-((1-(4-((1R,2S)-6-hydroxy-2-phenyl-1,2,3,4-tetrahydro-naphthalen-1-yl)phenyl)piper-idin-4-yl)methyl)piperidin-4-yl)picolinamide]: the IC50 at CRBN/DDB1 was above 5000 nM. For the same molecule, the Dmax at ER in MCF-7 cells (setting [2]) lay in the range of 25 to 50%. Moreover, the DC50 on ER in MCF-7 cells (16 hrs treatment) is below 1 nM.
As to `O=C1CC[C@H](N2Cc3cc4c(cc3C2=O)OC[C@@H]2CN(CC3CCC5(CC3)CN(c3ncc([C@H]6c7ccc(O)cc7CC[C@H]6c6ccccc6)cn3)C5)CCN42)C(=O)N1` (single isomer, unassigned) [Compound A157], on CRBN/DDB1, the IC50 fell in the range of 500 to 5000 nM. Also, the Dmax at ER in MCF-7 cells (setting [2]) is below 25%. The DC50 at ER in MCF-7 cells (16 hrs treatment) was 10 to 100 nM.
On to `O=C1CC[C@H](N2Cc3c(ccc4c3OCC43CCN(CC4CC5COCC(C4)N5c4ccc([C@@H]5c6ccc(O)cc6CC[C@@H]5c5ccccc5)cc4)CC3)C2=O)C(=O)N1` (stereo partly drawn) [Compound A81, (3S)-3-(1′-((9-(4-((1R,2S)-6-hydroxy-2-phenyl-1,2,3,4-tetra-hydronaphthalen-1-yl)phenyl)-3-oxa-9-azabicyclo[3.3.1]nonan-7-yl)methyl)-6-oxo-6,8-dihydro-2H,7H-spiro[furo[2,3-e]isoindole-3,4′-piperidin]-7-yl)piperidine-2,6-dione], for which the IC50 on CRBN/DDB1 is below 50 nM. For the same molecule, the Dmax at ER in MCF-7 cells (setting [1]) lay within 25 to 50%. Moreover, the DC50 at ER in MCF-7 cells (16 hrs treatment) is below 1 nM.
Regarding `O=C1CC[C@H](N2Cc3cc4c(cc3C2=O)OC[C@@H]2CN(CC3CC5(CCN(c6ccc([C@@H]7c8ccc(O)cc8CC[C@@H]7c7ccccc7)cc6F)CC5)C3)CCN42)C(=O)N1` (single isomer, unassigned) [Compound A150], the IC50 at CRBN/DDB1 is 500 to 5000 nM. Further, the Dmax on ER in MCF-7 cells (setting [2]) was in the range of 50 to 75%. The DC50 on ER in MCF-7 cells (16 hrs treatment) lay in the range of 10 to 100 nM.
In the case of `COc1cc(N2CCC(CN3CCC(c4ccc(N[C@H]5CCC(=O)NC5=O)c(F)c4)CC3)CC2)c(F)cc1[C@@H]1c2ccc(O)cc2CC[C@@H]1c1ccccc1` [Compound A118, (S)-3-((2-fluoro-4-(1-((1-(2-fluoro-4-((1S,2S)-6-hydroxy-2-phenyl-1,2,3,4-tetrahydronaph-thalen-1-yl)-5-methoxyphenyl)-piperidin-4-yl)methyl)piper-idin-4-yl)phenyl)amino)piper-idine-2,6-dione], the IC50 on CRBN/DDB1 was 500 to 5000 nM. In addition, the Dmax on ER in MCF-7 cells (setting [2]) is 25 to 50%. Also, the DC50 at ER in MCF-7 cells (16 hrs treatment) is below 1 nM.
Consider `COc1cc([C@H]2c3ccc(O)cc3CC[C@H]2c2ccccc2)c(F)cc1N1CCC2(CC1)CC(CN1CCN3c4ccc5c(c4OC[C@H]3C1)CN([C@H]1CCC(=O)NC1=O)C5=O)C2` [Compound A117, (S)-3-((R)-7-((7-(5-fluoro-4-((1R,2R)-6-hydroxy-2-phenyl-1,2,3,4-tetrahydronaphthalen-1-yl)-2-methoxyphenyl)-7-aza-spiro[3.5]nonan-2-yl)methyl)-1-oxo-1,3,5,5a,6,7,8,9-octa-hydro-2H-pyrazino[1′,2′:4,5] [1,4]oxazino[2,3-e]isoindol-2-yl)piperidine-2,6-dione], for which the IC50 on CRBN/DDB1 is below 50 nM. For the same molecule, the Dmax at ER in MCF-7 cells (setting [2]) was 25 to 50%. Besides, the DC50 at ER in MCF-7 cells (16 hrs treatment) fell in the range of 10 to 100 nM.
Turning to `O=C1CC[C@H](N2Cc3c(ccc4c3OCC43CCN(C4CN(CCOc5ccc([C@@H]6c7ccc(O)cc7CC[C@@H]6c6ccccc6)cc5)C4)CC3)C2=O)C(=O)N1` [Compound A80, (S)-3-(1′-(1-(2-(4-((1R,2S)-6-hydroxy-2-phenyl-1,2,3,4-tetrahydronaphthalen-1-yl)-phenoxy)ethyl)azetidin-3-yl)-6-oxo-6,8-dihydro-2H,7H-spiro[furo[2,3-c]isoindolc-3,4′-piperidin]-7-yl)piperidine-2,6-dione], the IC50 at CRBN/DDB1 was below 50 nM. The Dmax at ER in MCF-7 cells (setting [1]) lay in the range of 50 to 75%. Further, at ER in MCF-7 cells (16 hrs treatment), the DC50 is below 1 nM.
Consider `O=C1CC[C@H](N2Cc3cc4c(cc3C2=O)OC[C@@H]2CN(CC3CC5(CCN(c6ccc([C@@H]7c8ccc(O)cc8CC[C@@H]7c7ccccc7)cn6)CC5)C3)CCN42)C(=O)N1` (single isomer, unassigned) [Compound A121], for which the concentration for half-maximal inhibition (IC50) at CRBN/DDB1 was 500 to 5000 nM. Moreover, the maximal degradation (Dmax) at ER in MCF-7 cells (setting [2]) was above 75%. The DC50 on ER in MCF-7 cells (16 hrs treatment) was in the range of 1 to 10 nM.
For the molecule `COc1cc(N2CC3(CCC(CN4CCN5c6cc7c(cc6OC[C@@H]5C4)C(=O)N([C@H]4CCC(=O)NC4=O)C7)CC3)C2)c(F)cc1[C@@H]1c2ccc(O)cc2CC[C@@H]1c1ccccc1` (single isomer, unassigned) [Compound A164], the IC50 at CRBN/DDB1 was in the range of 500 to 5000 nM. Besides, the Dmax at ER in MCF-7 cells (setting [2]) was above 75%. Further, the DC50 on ER in MCF-7 cells (16 hrs treatment) is 1 to 10 nM.
For the molecule `O=C1CC[C@H](N2Cc3c(ccc4c3OCC43CCN(C[C@@H]4COC5(C4)CN(c4ccc([C@@H]6c7ccc(O)cc7CC[C@@H]6c6ccccc6)cc4)C5)CC3)C2=O)C(=O)N1` [Compound A75, (S)-3-(1′-(((R)-2-(4-((1R,2S)-6-hydroxy-2-phenyl-1,2,3,4-tetrahydronaphthalen-1-yl)phenyl)-5-oxa-2-azaspiro[3,4]octan-7-yl)methyl)-6-oxo-6,8-dihydro-2H,7H-spiro[furo[2,3-e]isoindole-3,4′-piperidin]-7-yl)piperidine-2,6-dione], the IC50 on CRBN/DDB1 is below 50 nM. Also, the maximal degradation (Dmax) at ER in MCF-7 cells (setting [1]) fell in the range of 50 to 75%. Moreover, the DC50 on ER in MCF-7 cells (16 hrs treatment) was below 1 nM.
For the molecule `COc1cc(N2CCC3(CC2)CC(CN2CCN4c5ccc6c(c5OC[C@H]4C2)CN([C@H]2CCC(=O)N(C)C2=O)C6=O)C3)ccc1[C@@H]1c2ccc(O)cc2CC[C@@H]1c1ccccc1` (single isomer, unassigned) [Compound A132], the IC50 on CRBN/DDB1 fell in the range of 500 to 5000 nM. Also, the Dmax at ER in MCF-7 cells (setting [2]) is 50 to 75%. In addition, the DC50 at ER in MCF-7 cells (16 hrs treatment) lay within 1 to 10 nM.
In the case of `O=C1CC[C@H](N2Cc3c(ccc4c3OCC43CCN(C[C@H]4COC5(C4)CN(c4ccc([C@@H]6c7ccc(O)cc7CC[C@@H]6c6ccccc6)cc4)C5)CC3)C2=O)C(=O)N1` [Compound A74, (S)-3-(1′-(((S)-2-(4-((1R,2S)-6-hydroxy-2-phenyl-1,2,3,4-tetrahydronaphthalen-1-yl)phenyl)-5-oxa-2-azaspiro[3,4]octan-7-yl)methyl)-6-oxo-6,8-dihydro-2H,7H-spiro[furo[2,3-e]isoindole-3,4′-piperidin]-7-yl)piperidine-2,6-dione], the IC50 at CRBN/DDB1 was below 50 nM. In addition, the Dmax at ER in MCF-7 cells (setting [1]) fell in the range of 50 to 75%. In addition, the 50% degradation concentration (DC50) on ER in MCF-7 cells (16 hrs treatment) is below 1 nM.
